The source of these data is ChEMBL document CHEMBL3352560, “Optimization of drug-like properties of nonsteroidal glucocorticoid mimetics and identification of a clinical candidate” (ACS Med Chem Lett, 2014).

The conditions of data set [1]: buffer, pH 6.8, 24 h.
A further data set in a line: in vivo. The settings on record: rat.
A further data set in a line: physchem. The settings on record: buffer, pH 6.8.

Converted amounts (≈) assume the structure as drawn.

`CCS(=O)(=O)c1cc2cc(C[C@](O)(CC(C)(C)c3ccc(F)cc3C(N)=O)C(F)(F)F)[nH]c2cn1` [BI 653048] displayed a Therm_solubility in data set [1] of 5 µg/mL. For the same compound, the half-life – broadly, the time in which the quantity being followed falls by half – in the data set “in vivo” was 252 min.

With `CC(C)(CC(O)(Cc1cc2cc(N3CCOCC3)ncc2[nH]1)C(F)(F)F)c1cccc(S(C)(=O)=O)c1` (stereo not drawn), in “physchem”, the thermodynamic solubility (usually the concentration in solution at equilibrium with solid) at 24 h was found to be 47 µg/mL (≈ 89.4 µM).
